Measured values reported in EP0087397A2, “Propionylglycine derivative, process for its preparation and therapeutic compositions which contain it as the active principle” (Farmatis S.r.l., priority 1982, dated 1983).
Where a name gives a salt, the structure may show the parent alone. Read-outs that look alike come from different tables or passages of the source.

Assays:
[1] = tested on: bronchial hypersecretion induced in rats using S02; experiment: In vivo mucolytic activity: bronchial hypersecretion induced by SO2; settings: for number of rats which developed bronchial obstruction, expressed as a percentage of the animals not protected: oral 0.25 g/kg/die for two weeks, 300 ppm SO2 two hours per day, total 90 hours
Protocol: This was determined by means of bronchial hypersecretion induced in rats using […]. The rats were treated by oral administration of 0.25 g/kg/die of mucolytic product for a period of two weeks, followed by inhalation of 300 ppm of SO2 for two hours per day for a total of 90 hours.

[2] = Mucolytic activity on nonpurulent excreta (in vitro, viscosity); design: species or system chronic bronchitis patients; settings: AC and MP in tamponed solution
Protocol: (§1) The mucolytic compounds under test were incubated for 5 minutes at 25°C under constant agitation, mixing 1 ml of aqueous solution of product, having increasing molar quantities of the product being considered, with 10 ml of mucin. The viscosity was measured both before and after incubation, using an Ostwald viscosimeter with 1.5 mm capillaries. […] Each value represents the average of six readings.
Mucolytic activity on nonpurulent excreta The mucolytic activity was measured using a pool of nonpurulent excreta obtained from chronic bronchitis patients. The excreta was diluted 1:1 with a physiological solution and homogenized for three minutes - using a glass homogenizer - and then filtered through gauze and used immediately. The method used here is the same as described in the previous paragraph. In this case, however, the residual viscosity was determined after 5 minutes at 25°C (a) and after 40 minutes at 37°C (b).

[3] = tested on: intrabronchial desquamation and reactive hyperplasia of the mucosa; experiment: Trophic-protective activity, nebulized CCl4; assay type: in vivo, rats; settings: 0.25 g/kg/die orally for ten days, nebulized CCl4, 5 applications of 2 minutes/die
Protocol: This was determined in rats by the administration of 0.25 g/kg/die, orally, of the product for a period of ten days while, contemporaneously, treating with nebulized CCl4 (5 applications of 2 minutes/die).

[4] = tested on: DIFCO gastric mucin; experiment: Mucolytic activity on gastric mucin (in vitro, Ostwald viscosimeter); assay type: biochemical; settings: for Residual Viscosity in %: 5 minutes at 25°C, average of six readings, % of initial viscosity
Protocol: The mucolytic activity was measured using DIFCO gastric mucin (10 g dissolved in 100 ml of phyaiological solution).
as §1

[5] = tested on: aerosol histaminic shock; experiment: Antibronchospasmic activity, aerosol histaminic shock; assay type: in vivo; settings: for time for the onset of the convulsions: 0.1 g/kg i.p., histamine aerosol two hours after pretreatment
Excerpt: […] The time was taken for the onset of the convulsions after having started administering the aerosol.

[6] = tested on: carragenin; experiment: Antiphlogistic activity, carragenin paw test; assay type: in vivo, rats; settings: for ED50: Rattus norvegicus, sc, 3 h
Protocol: This was determined on rats by means of the administration of the product,using an esophagus probe, one hour before making a subcutaneous injection of 0.05 ml of 1% carragenin solution in the right hind paw. After three hours, the volume of the treated paw was compared to the left hind paw, using a plethysmograph.

[7] = Acute toxicity; assay type: in vivo; settings: mouse, in vivo, mice, read-out: DL50 (the source's name)
Excerpt: (§2) The acute toxicity determined in mice is shown by the values in Table 5 below: […]

[8] = tested on: mice; experiment: Acute toxicity; assay type: in vivo
Excerpt: as §2

[9] = tested on: chronic bronchitis cases; experiment: Preliminary clinical tests in chronic bronchitis cases; assay type: in vivo; settings: for diminuition of excreta viscosity: 4th-5th day of treatment, cone and plate rotary viscosimeter
Protocol: In the clinical field, preliminary tests were performed with the new compound by giving daily doses of 0.5 g,parenterally, 0.8 g, by aerosol, and 1 g,either orally or rectally, to chronic bronchitis cases. There was a progressive diminuition of excreta viscosity at the 4th-5th day of treatment, 70% in the case of purulent expectoration and 50% in the case of muco- purulent expectoration. The values were measured by means of a cone and plate, rotary viscosimeter. There was an average increase of 20% in vital capacity, 15% in VEMS and a reduction of residual volume of about 20%.
This test proves once more that the new product is well tolerated in comparison with the other compounds having free thiolic action.

[10] = tested on: rats; experiment: Tolerability at the lung level (surfactant, type II pneumocytes) in rats of the chronic toxicity test; assay type: in vivo; settings: at termination of chronic treatment
Excerpt: In order to evaluate the tolerability at the lung level, for the same rats undergoing the chronic toxicity test, a determination of the influence made at the surfactant level was done at the termination of the treatment. A phospholipids analysis was made, obtaining qualitative data by means of TLC chromographic analysis and quantitative data by phosphorous determination. Gas chromographic analysis was made of the fatty acid content in liposomes separated.by centrifuging from the liquid in which the excised lungs had been washed.

[11] = tested on: rats and dogs; experiment: Subacute and chronic toxicity, gastric probe; assay type: in vivo; settings: subacute 12 weeks in rats; chronic 6 months in rats and dogs, 0.1 - 0.5 g/kg/die; statement also covers fetal toxicity tests
Protocol: The subacute toxicity of the new product being practically the same for either case of oral or endovenous administration, the administration was only done by.means of a gastric probe.
(§3) The subacute toxicity tests were carried out for 12 weeks on the rats, the chronic toxicity on rats and dogs for 6 months (0.1 - 0.5 g/kg/die) and the fetal toxicity tests were carried out on rats (0.1 - 0.5 g/kg/die between the 6th and 16th days gravidity) and on rabbits (0.1 - 0.3 g/kg/die between the 6th and 18th days of gravidity).

[12] = Pharmacokinetics: urinary elimination, titrimetric method; assay type: in vivo, rats; settings: for dose excreted at 5 h: rat, urine, 800 mg/kg
Protocol: The pharmcokinetic tests were carried out on rats after having administered 0.8 g/kg of the new product, orally, and using an esophagus probe.
The urinary elimination tests were carried out using the ti- trimetric method. Each sample was treated with an equal volume of 20% HCL, titrating the sulfhydrylic groups with M/100 potassium bromate until the disappearance of the yellow color and calculating the amount of contained new compound (I) by means of a calibrated curve obtained by the same method. The velocity of urinary excretion is maximum within the first two hours after administration. Maximum values obtained after 5 hours amount to about 20% of the amount administered. Administering the same dose (0.8 g/kg) to a rat by means of a rectal suppository of very small dimensions, the cumulative amount in per cent eliminated in the urine within the first five hours is about 12 %.

[13] = tested on: rats, rabbits; experiment: Fetal toxicity; assay type: in vivo; settings: rats 0.1 - 0.5 g/kg/die, 6th to 16th day of gravidity; rabbits 0.1 - 0.3 g/kg/die, 6th to 18th day
Protocol: as §3

[14] = Molar Conc. 0.015, (a) after 5 minutes at 25°C
[15] = Molar Conc. 0.015, (b) after 40 minutes at 37°C
[16] = Molar Conc. 0.03, (a) after 5 minutes at 25°C
[17] = Molar Conc. 0.03, (b) after 40 minutes at 37°C
[18] = Molar Conc. 0.06, (a) after 5 minutes at 25°C
[19] = Molar Conc. 0.06, (b) after 40 minutes at 37°C
[20] = esophagus probe one hour before 0.05 ml 1% carragenin s.c. in right hind paw, paw volume after three hours, read-out: DE50 (the source's name)
[21] = daily 0.5 g parenterally, 0.8 g aerosol or 1 g orally or rectally

Structure (SMILES)	number of rats which developed bronchial obstruction, expressed as a percentage of the animals not protected [1] [%]	Residual Viscosity in % [2, 14] [%]	Residual Viscosity in % [2, 15] [%]	Residual Viscosity in % [2, 16] [%]	Residual Viscosity in % [2, 17] [%]	Residual Viscosity in % [2, 18] [%]	Residual Viscosity in % [2, 19] [%]	prevention of intrabronchial desquamation and reactive hyperplasia of the mucosa [3] [%]	Residual Viscosity in % ([4]; Molar Conc. 0.015, 15000 µM) [%]	Residual Viscosity in % ([4]; Molar Conc. 0.03, 30000 µM) [%]	Residual Viscosity in % ([4]; Molar Conc. 0.06, 60000 µM) [%]	time for the onset of the convulsions [5] [s]	ED50 [6, 20] [mg/kg]	LD50 ([7]; ip, i.p) [mg/kg]	LD50 ([7]; iv, e.v.) [mg/kg]	LD50 ([7]; po, os) [mg/kg]	further results
CC(=O)N[C@@H](CS)C(=O)O [AC, N-acetylcysteine]	16	87	82	68	62	40	33	≤ 50	91	86	66	210	830	400			
CC(=O)Oc1ccccc1C(=O)O [ASA, acetylsalicylic acid]																	ED50 ([6]; read-out: DE50): 100 mg/kg
NC(CSCC(=O)O)C(=O)O (stereo not drawn) [CM, S-carboxymetylcystine]	29							≤ 50									values lower than those obtained with the MP compound ([4]; tests of Tables 1 and 2 (mucin and excreta) repeated, relative to MP): 30%; DE50 ([6]; esophagus probe one hour before 0.05 ml 1% carragenin s.c. in right hind paw, paw volume after three hours): not measurable
O=C(O)CNC(=O)CCS [MP, beta-mercaptopropionylamidoacetic acid]	16	82	78	63	56	40	31	≤ 50	88	84	65	210					DE50 ([6]; esophagus probe one hour before 0.05 ml 1% carragenin s.c. in right hind paw, paw volume after three hours, 180 min): 785 mg/kg; DL50 ([8]; e.v.): 3.10 g/kg; DL50 ([8]; i.p): 1.54 g/kg; DL50 ([8]; os): 3.20 g/kg
CC(S)C(=O)NCC(=O)O (stereo not drawn) [MP/A, alpha-mercaptopropionylamidoacetic acid]	14.5							≤ 50				200	780	1280	2240	2190	values obtained compared with the beta isomer (MP) ([4]; tests of Tables 1 and 2 (mucin and excreta) repeated): substantially the same as those obtained with the beta isomer (MP)
O=C(O)CNC(=O)CCS [MPCa, calcium salt of beta-mercapto propionylamidoacetic acid]	12.5	76	71	44	36	32	24		83	75	59	250	650	1710	3470	3510	bronchospasmic manifestations ([9]; aerosol treatment, plethysmograph in broncholabile patients): no bronchospasmic manifestations were observed; average increase in VEMS [9, 21]: 15%; average increase in vital capacity [9, 21]: 20%; reduction of residual volume [9, 21]: about 20%; diminuition of excreta viscosity ([9]; muco-purulent expectoration): 50%; diminuition of excreta viscosity ([9]; purulent expectoration): 70%; persistence of the -SE groups in the cells of the bronchial mucosa ([1]; D.D.D. coloration): almost complete persistence; reduction of calyciform hyperplasia ([1]; bronchial mucosa, P.A.S. coloration, less than control group): 40%; number of muciparous cells ([1]; bronchial mucosa, histological and histochemical tests): significant reduction; surfactant level (phospholipids, fatty acid content) compared with the control group [10]: No significant differences; prevention of intrabronchial desquamation and reactive hyperplasia of the mucosa ([3]; listed as The new compound): 65%; tolerability [11]: Very good tolerability; dose excreted at 5 h ([12]; po, rats, 0.8 g/kg orally, after 5 hours, read-out: urinary elimination, % of the amount administered): ~20%; time of maximum velocity of urinary excretion ([12]; rats, 0.8 g/kg orally): two; dose excreted at 5 h ([12]; 0.8 g/kg rectal suppository, within the first five hours, read-out: cumulative amount in per cent eliminated in the urine): ~12%; effects on the mothers and on the characteristics of the offspring [13]: no negative effects; increase of time for the onset of the convulsions ([5]; 48 hours after administration): 30%
